Tests used:
[1] = system: HCT-116; assay: Cytotoxicity against human HCT116 cells at 1 uM after 72 hrs by MTS assay; format: functional; conditions: HCT-116, 72 h
[2] = system: MCF7; assay: Cytotoxicity against human MCF7 cells at 1 uM after 72 hrs by MTS assay; format: functional; conditions: MCF7, 72 h
[3] = system: PC-3; assay: Cytotoxicity against human PC3 cells at 1 uM after 72 hrs by MTS assay; format: functional; conditions: PC-3, 72 h
[4] = in vitro; conditions: chlorocebus sabaeus, Vero cells
[5] = in vitro; conditions: monkey, Vero cells
[6] = in vitro; conditions: monkey, Vero cells; remark: listed apart in the source
[7] = in vitro; conditions: human, MT4 cells
[8] = in vitro; conditions: human, MT4 cells; remark: listed apart in the source
[9] = in vitro; conditions: human, MT4 cells; remark: listed apart in the source
[10] = system: Chikungunya virus; assay: microbe, parasite or virus in culture; conditions: strain 899, Vero
[11] = system: Sindbis virus; assay: microbe, parasite or virus in culture; conditions: strain HRsp, Vero
[12] = system: Semliki Forest virus; assay: microbe, parasite or virus in culture; conditions: strain Vietnam, Vero
[13] = system: Human immunodeficiency virus 1; assay: microbe, parasite or virus in culture; conditions: Human immunodeficiency virus 1, 3B, MT4, 120 h
[14] = system: Human immunodeficiency virus 2; assay: microbe, parasite or virus in culture; conditions: Human immunodeficiency virus 2, ISOLATE ROD, MT4, 120 h

SMILES | inhibition at 1 µM [1] | inhibition at 1 µM [2] | inhibition at 1 µM [3] | CC50 at 72 h [4] | selectivity ratio [5] | selectivity ratio [6] | CC50 at 72 h [7] | selectivity ratio [8] | selectivity ratio [9] | EC50 [10] | EC50 [11] | EC50 [12] | EC50 [13] | EC50 [14]
CCCCCCCCC(=O)/C=C/C=C/C=C/C(=O)O[C@@]12C[C@@H](C)[C@@]3(O)[C@@H](C=C(CO)C[C@]4(O)C(=O)C(C)=C[C@@H]34)[C@@H]1C2(C)C | < 40% | < 40% | < 40% | 13 µM | 5.9 | 1.2 | 13 µM | 299 | 1430 | 2.2 µM | 11 µM | > 168 µM | 0.043 µM | 0.018 µM
Cc1ccnc2c1NC(=O)c1cccnc1N2C1CC1 [NEVIRAPINE] |  |  |  |  |  |  | > 15 µM | 148 |  |  |  |  | 0.01 µM | > 15 µM
Cc1cn([C@H]2C[C@H](N=[N+]=[N-])[C@@H](CO)O2)c(=O)[nH]c1=O [ZIDOVUDINE] |  |  |  |  |  |  | > 25 µM |  |  |  |  |  |  | 
CCC(C)C(=O)O[C@@]12[C@H](OC(C)=O)[C@@H](C)[C@]3(O)[C@@H]4C=C(C)C(=O)[C@@H]4CC(CO)=C[C@H]3[C@@H]1C2(C)C (stereo not given in full) | < 40% | < 40% | < 40% | 105 µM | 1.4 |  | 85 µM |  | 4 | 77 µM |  |  | > 85 µM | 13 µM
CCN(CC)CCCC(C)Nc1ccnc2cc(Cl)ccc12 (stereo not given) [CHLOROQUINE] |  |  |  | 89 µM |  |  |  |  |  |  |  |  |  | 
Nc1ccn([C@@H]2CS[C@H](CO)O2)c(=O)n1 [LAMIVUDINE] |  |  |  |  |  |  | > 87 µM | > 22 | > 5.6 |  |  |  | 3.9 µM | 15.5 µM
CCC(C)C(=O)O[C@@]12[C@H](OC(C)=O)[C@@H](C)[C@@]3(O)[C@@H](C=C(CO)C[C@]4(O)C(=O)C(C)=C[C@@H]34)[C@@H]1C2(C)C (stereo not given in full) | < 40% | < 40% | < 40% | 134 µM | 41 |  | 102 µM | 376 | 949 | 3.3 µM | > 255 µM | > 255 µM | 0.271 µM | 0.107 µM
O=c1[nH]cnc2c1ncn2[C@H]1CC[C@@H](CO)O1 [DIDANOSINE] |  |  |  |  |  |  | > 50 µM | > 4.6 | > 5.2 |  |  |  | 10.8 µM | 9.6 µM
CC/C=C/C=C/C=C\C(=O)O[C@@H]1[C@@H](C)[C@]2(O)[C@@H]3C=C(C)C(=O)[C@@H]3CC(CO)=C[C@H]2[C@@H]2C(C)(C)[C@]12OC(=O)CCC | < 40% | < 40% | < 40% | 7.1 µM | 5.1 | 1.4 | 8.4 µM | 36 | 33 | 1.4 µM | 5 µM | > 177 µM | 0.233 µM | 0.174 µM
CCC(C)C(=O)O[C@@]12C[C@@H](C)[C@@]3(O)[C@@H](C=C(CO)C[C@]4(O)C(=O)C(C)=C[C@@H]34)[C@@H]1C2(C)C (stereo not given in full) | < 40% | < 40% | < 40% | > 289 µM | > 240 |  | 116 µM | 899 | 2060 | 1.2 µM | > 289 µM | > 289 µM | 0.129 µM | 0.056 µM
